Assay results: patent publication US4740504A, “Antihyperlipidemic amine boranes” (United States Borax & Chemical Corp., priority 1987, dated 1988)
Like-named read-outs stand apart in the source and are kept apart here.

Assays:
Cholesterol 7α hydrolase = biological target: T1, Cholesterol 7α hydrolase (Mus musculus, UniProt Q64505); assay: Enzymatic studies in vitro: cholesterol 7α hydrolase; assay type: biochemical
T1 construct: from tissue; host or cells: liver (inferred; the enzyme is liver-specific)
T1 sequence (Q64505 whole entry): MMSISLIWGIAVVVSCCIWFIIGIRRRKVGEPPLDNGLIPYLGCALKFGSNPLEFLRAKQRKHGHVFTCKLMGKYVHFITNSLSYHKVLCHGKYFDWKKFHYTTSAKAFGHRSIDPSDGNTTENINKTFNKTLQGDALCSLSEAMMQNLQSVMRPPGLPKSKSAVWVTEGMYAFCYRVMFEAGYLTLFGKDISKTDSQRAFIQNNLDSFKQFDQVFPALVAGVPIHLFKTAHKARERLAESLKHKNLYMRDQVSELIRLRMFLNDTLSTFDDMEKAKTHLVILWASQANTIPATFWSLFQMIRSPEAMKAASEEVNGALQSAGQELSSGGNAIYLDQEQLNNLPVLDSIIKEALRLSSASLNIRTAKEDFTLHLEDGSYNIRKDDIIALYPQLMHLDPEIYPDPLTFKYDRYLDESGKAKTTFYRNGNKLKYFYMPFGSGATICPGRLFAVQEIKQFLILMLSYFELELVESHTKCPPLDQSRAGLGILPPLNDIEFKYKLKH

[1] = biological target: T2, ATP dependent citrate lyase (Mus musculus, UniProt Q91V92); assay: Enzyme activity after in vivo dosing: ATP dependent citrate lyase; conditions: 16 mg/kg/day
T2 construct: from tissue
T2 sequence (Q91V92 1-1091): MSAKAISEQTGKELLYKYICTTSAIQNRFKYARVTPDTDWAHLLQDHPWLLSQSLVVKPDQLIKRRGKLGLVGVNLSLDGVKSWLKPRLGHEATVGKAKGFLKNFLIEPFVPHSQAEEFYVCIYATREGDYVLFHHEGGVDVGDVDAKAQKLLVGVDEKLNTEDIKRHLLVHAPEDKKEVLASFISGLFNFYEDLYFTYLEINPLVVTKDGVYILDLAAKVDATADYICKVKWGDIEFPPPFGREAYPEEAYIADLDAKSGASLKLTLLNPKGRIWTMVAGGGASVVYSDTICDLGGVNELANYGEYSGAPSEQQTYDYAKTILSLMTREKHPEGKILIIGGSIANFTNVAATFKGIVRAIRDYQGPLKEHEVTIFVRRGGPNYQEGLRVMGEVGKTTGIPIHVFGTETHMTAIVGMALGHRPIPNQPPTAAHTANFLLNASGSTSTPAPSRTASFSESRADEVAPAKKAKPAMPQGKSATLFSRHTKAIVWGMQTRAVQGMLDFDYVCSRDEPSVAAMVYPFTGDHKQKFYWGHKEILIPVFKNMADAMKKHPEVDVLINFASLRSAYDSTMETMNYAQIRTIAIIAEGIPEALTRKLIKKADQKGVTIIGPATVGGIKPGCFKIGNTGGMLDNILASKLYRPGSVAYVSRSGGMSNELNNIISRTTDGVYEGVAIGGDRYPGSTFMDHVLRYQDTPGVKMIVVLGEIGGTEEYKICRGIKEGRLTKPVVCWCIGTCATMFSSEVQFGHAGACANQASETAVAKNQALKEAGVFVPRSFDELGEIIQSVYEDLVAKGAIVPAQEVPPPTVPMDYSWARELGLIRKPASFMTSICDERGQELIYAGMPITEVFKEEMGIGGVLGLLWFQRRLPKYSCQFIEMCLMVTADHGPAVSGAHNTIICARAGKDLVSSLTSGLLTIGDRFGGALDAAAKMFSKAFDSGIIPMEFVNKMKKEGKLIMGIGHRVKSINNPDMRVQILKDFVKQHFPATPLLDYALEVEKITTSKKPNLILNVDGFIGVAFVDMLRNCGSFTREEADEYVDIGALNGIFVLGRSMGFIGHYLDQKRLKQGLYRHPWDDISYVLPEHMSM

[2] = biological target: T3, acyl CoA cholesterol acyl transferase (Mus musculus, UniProt O88908); assay: Enzyme activity after in vivo dosing: acyl CoA cholesterol acyl transferase; conditions: 8 mg/kg/day
T3 construct: from tissue
T3 sequence (O88908 1-525): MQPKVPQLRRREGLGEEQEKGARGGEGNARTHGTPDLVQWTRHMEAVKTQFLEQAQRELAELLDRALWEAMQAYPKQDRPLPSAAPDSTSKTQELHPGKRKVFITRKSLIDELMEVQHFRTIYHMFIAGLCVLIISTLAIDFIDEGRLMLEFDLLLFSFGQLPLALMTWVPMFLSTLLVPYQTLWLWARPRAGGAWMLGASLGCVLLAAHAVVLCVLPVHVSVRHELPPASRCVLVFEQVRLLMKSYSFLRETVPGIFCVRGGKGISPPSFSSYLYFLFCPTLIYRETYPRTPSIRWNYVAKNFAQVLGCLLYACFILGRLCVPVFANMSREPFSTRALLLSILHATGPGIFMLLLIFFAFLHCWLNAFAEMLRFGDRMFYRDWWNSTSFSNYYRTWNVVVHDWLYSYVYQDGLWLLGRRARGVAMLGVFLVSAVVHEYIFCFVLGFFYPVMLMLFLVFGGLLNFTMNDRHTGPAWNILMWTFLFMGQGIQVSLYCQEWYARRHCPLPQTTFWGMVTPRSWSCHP

male CF1 mice = assay: Hypolipidemic activity in CF1 mice, intraperitoneal dosing (serum cholesterol and triglyceride); assay type: in vivo; conditions: for response vs control in vivo at 20 mg/kg: Mus musculus, ip, Table I, 20 mg./kg./day i.p., male CF1 mice; for Serum Cholesterol Day 9 (X ± SD) / Serum Cholesterol Day 16 (X ± SD) / Serum Triglyceride Day 16 (X ± SD) / Serum Triglyceride Day 9 (X ± SD): Table III, CF1 mice, N = 6
Experimental: For determining hypolipidemic activity, the compounds were suspended in an aqueous 1% carboxymethylcellulose solution and tested at 5 or 20 mg./kg./day administered intraperitoneally to male CF1 mice (~25 g.). On days 9 and 16 blood was collected by tail vein bleeding and the serum separated by centrifugation for three minutes. Serum cholesterol levels were determined by a modified Liebermann-Burchard reaction. Serum triglyceride levels were also determined at 16 days using a Fisher-Hycel Triglyceride Test Kit.
The test was repeated at a dosage of 8 mg./kg./day.
N-n-Octadecyl-N,N-dimethylamine borane was suspended in an aqueous 1% carboxymethylcellulose solution, homogenized, and administered to CF1 male mice (~25 g.) intraperitoneally for 16 days or Sprague Dawley male rats (~350 g.) orally by an intubation needle for 14 days. On days 9 and 14 or 16, blood was obtained by tail vein bleeding and the serum separated by centrifugation for 3 minutes. The serum cholesterol levels were determined by a modification of the Liebermann-Burchard reaction. Serum was also collected on day 14 or 16 and the triglyceride content was determined by a Fisher-Hycel Triglyceride Test Kit.

[3] = biological target: T4, Cholesterol 7α hydroxylase (Mus musculus, UniProt Q64505); assay: Enzyme activity after in vivo dosing: cholesterol 7α hydroxylase; conditions: 16 mg/kg
T4 construct: from tissue; host or cells: liver (inferred; the enzyme is liver-specific)
T4 sequence (Q64505 whole entry): as the sequence (Q64505 whole entry) above

[4] = tested on: hyperlipidemic induced mice; assay: Hypolipidemic activity in diet-induced hyperlipidemic mice; assay type: in vivo; conditions: 8 mg./kg./day i.p., 12 days
Experimental: The same compound was tested in mice that had been placed on a commercial diet to produce a "hyperlipidemic" state. […] Serum cholesterol and triglyceride levels were measured at that time. A similar lowering of cholesterol and triglyceride levels in the hyperlipidemic-induced mice was observed.

[5] = CF1 male mice, 8 mg/kg/day I.P.

## [BH3-][N+](C)(C)CCCCCCCCCCCCCCCCCC [I, N-n-Octadecyl-N,N-Dimethylamine Borane]
Cholesterol 7α hydrolase
  effect on cholesterol 7α hydrolase activity: unaffected
[1]
  reduction of ATP dependent citrate lyase activity: 62%
[2]
  lowering of acyl CoA cholesterol acyl transferase activity: 52%
Male CF1 mice; [5]
  reduction of serum cholesterol levels: 41%
  reduction of serum triglyceride levels: 59%
Male CF1 mice; 216 h, day 9, read-out: Serum Cholesterol Day 9
  response vs control in vivo at 20 mg/kg: 82%
Male CF1 mice; 384 h, day 16, read-out: Serum Cholesterol Day 16
  response vs control in vivo at 20 mg/kg: 79%
Male CF1 mice; 384 h, day 16, read-out: Serum Triglyceride Day 16
  response vs control in vivo at 20 mg/kg: 77%
Male CF1 mice; 2 mg/kg/day i.p.
  Serum Cholesterol Day 9 (X ± SD): 71 ± 6% of Control
  Serum Cholesterol Day 16 (X ± SD): 61 ± 7% of Control
  Serum Triglyceride Day 16 (X ± SD): 45 ± 4% of Control
Male CF1 mice; 4 mg/kg/day i.p.
  Serum Cholesterol Day 9 (X ± SD): 69 ± 5% of Control
  Serum Cholesterol Day 16 (X ± SD): 59 ± 5% of Control
  Serum Triglyceride Day 16 (X ± SD): 49 ± 5% of Control
Male CF1 mice; 8 mg/kg/day i.p.
  Serum Cholesterol Day 9 (X ± SD): 79 ± 7% of Control
  Serum Cholesterol Day 16 (X ± SD): 59 ± 4% of Control
  Serum Triglyceride Day 9 (X ± SD): 87 ± 7% of Control
  Serum Triglyceride Day 16 (X ± SD): 41 ± 3% of Control
Male CF1 mice; 12 mg/kg/day i.p.
  Serum Cholesterol Day 9 (X ± SD): 62 ± 6% of Control
  Serum Cholesterol Day 16 (X ± SD): 61 ± 5% of Control
  Serum Triglyceride Day 9 (X ± SD): 58 ± 6% of Control
  Serum Triglyceride Day 16 (X ± SD): 56 ± 7% of Control
Male CF1 mice; 16 mg/kg/day i.p.
  Serum Cholesterol Day 9 (X ± SD): 60 ± 5% of Control
  Serum Cholesterol Day 16 (X ± SD): 61 ± 6% of Control
  Serum Triglyceride Day 9 (X ± SD): 73 ± 8% of Control
  Serum Triglyceride Day 16 (X ± SD): 63 ± 8% of Control
Male CF1 mice; 20 mg/kg/day i.p.
  Serum Cholesterol Day 9 (X ± SD): 82 ± 7% of Control
  Serum Cholesterol Day 16 (X ± SD): 79 ± 7% of Control
  Serum Triglyceride Day 16 (X ± SD): 77 ± 7% of Control
Male CF1 mice; 40 mg/kg/day i.p.
  Serum Cholesterol Day 9 (X ± SD): 83 ± 6% of Control
  Serum Cholesterol Day 16 (X ± SD): 79 ± 8% of Control
  Serum Triglyceride Day 16 (X ± SD): 93 ± 6% of Control
Male CF1 mice; 60 mg/kg/day i.p.
  Serum Cholesterol Day 9 (X ± SD): 81 ± 6% of Control
  Serum Cholesterol Day 16 (X ± SD): 82 ± 6% of Control
  Serum Triglyceride Day 16 (X ± SD): 113 ± 4% of Control
Male CF1 mice; in mice
  optimum dosage: about 8 mg./kg./day
[3]
  reduction of cholesterol 7α hydroxylase activity: 35%
[4]; hyperlipidemic induced mice (elevated to 375 mg %, control 128 mg %)
  serum cholesterol level after treatment: 180 mg %
[4]; hyperlipidemic induced mice
  reduction of serum cholesterol level: 52%
[4]; hyperlipidemic mice (elevated to 367 mg/dl, normal 137 mg/dl)
  serum triglyceride level after treatment: 187 mg %
[4]; hyperlipidemic mice
  reduction of serum triglyceride level: 49%
